Measured values reported in patent US20140024653A1, “COMPOSITIONS AND METHODS FOR TREATING CANCER USING PI3K INHIBITOR AND MEK INHIBITOR” (priority 2011, published 2014).

Assays:
90 non-kinase targets = settings: tested at 10 μM; cited from earlier work
[1] = system: HCT116 tumor vascular permeability; experiment: tumor vascular permeability, Evans Blue extravasation / Dextran-Fitc; assay type: in vivo, SCID mice; settings: (1) 10 mg/kg oral daily day 11 to day 13
Protocol: HCT116 tumor cells were implanted subcutaneously in the intra-scapular region in SCID mice. […] Each agent was given by oral route on a daily schedule. Tumor growth was monitored throughout the experiment by callipering the tumors. To quantify tumor vascular permeability, tumors were excised under ketamine/Xylazine (120/6 mg/kg ip) anesthesia at day 13, 4 hours post last treatment, 30 min after 0.5% Evans Blue iv injection, and 2 min post Dextran-Fitc 100 mg/kg iv injection. Tumors were then snap frozen, and 25 μm sections obtained for fluorescence quantification. Tumors sections were imaged with Icyte at 488 nm for vascular Dextran-Fitc determination and at 633 nm for Evans-Blue extravasation determination. Respective fluorescence were quantified as the sum of integral phantoms of fluorescence intensity and expressed as the mean ratio of Evans-Blue signal/Dextran-Fitc Signal.

[2] = mice and rats; cited from earlier work
HT29 = experiment: SRB cell growth assay, 72 h; assay type: cell-based; settings: Homo sapiens, HT-29, most sensitive cell lines
Protocol: (§1) Cell growth and treatment were performed in 96-well microtitre plates CELLSTAR® (Greiner Bio-One, Germany). Cells harvested from exponential phase cultures by trypsinization were plated in 150 μl of media at optimal seeding densities. The optimal seeding densities for each cell line were determined to ensure exponential growth for the duration of the experiment. All cells growing without anticancer agents were sub-confluent by the end of the treatment as determined by visual inspection.
(§2) 150 μl of cells, after a 24-hour pre-growth period, were treated by mixing with 50 μl of the compound containing media (resulting in a final DMSO concentration of 0.1%). The cells were allowed to grow at 37° C. for 72 hours. In addition, all experiments contained a few plates with cells that were processed for measurement immediately after the 24 hours recovery period. These plates contained information about the cell number that existed before treatment, at time zero, and served to calculate the cytotoxicity.
(§3) After treatment, cells were precipitated by addition of 10% TCA. Prior to fixation, the media was aspirated as described. After an hour of incubation at 4° C., the plates were washed two times with 400 μl of deionized water. Cells were then stained with 100 μl of a 0.08% wt/v SRB. The plates were allowed to sit for at least 30 min. and washed six times with 1% acetic acid to remove unbound stain. The plates were left to dry at room temperature and bound SRB was solubilized with 100 μl of 10 mM Tris base. Measurement of optical density was performed at 560 nm on a Victor 2 plate reader (Perkin Elmer, Germany). The SRB values for A375 and H460 cell lines were near to saturation (2.5 OD units) due to the high protein content of these cells, but not cell confluence. The measurements for these cells were performed at 520 nm instead of 560 nm.
(§4) Using these measurements, cellular responses can be calculated for incomplete inhibition of cell growth (GI), complete inhibition of cell growth (T GI) and net loss of cells (LC) due to compound activity. […] This is the drug concentration causing a 50% reduction compared to the net protein increase in control cells during the drug incubation period. In other words, GI50 is IC50 corrected for time zero. Similar to IC90, calculated GI90 values are also reported for all compounds tested. TGI was calculated from Ti=Tz. […] It was calculated as 100×[(Ti−Tz)/Tz]=−50. However, due to 72 hours treatment, low cell seeding density was required and LC50 could rarely be achieved.

A375 = experiment: SRB cell growth assay, 72 h; assay type: cell-based; settings: Homo sapiens, A-375, most sensitive cell lines
Protocol: as §1, §2, §3, §4

SKNAS = experiment: SRB cell growth assay, 72 h; assay type: cell-based; settings: Homo sapiens, SK-N-AS, most sensitive cell lines
Protocol: as §1, §2, §3, §4

CLS439 = experiment: SRB cell growth assay, 72 h; assay type: cell-based; settings: Homo sapiens, highest tested concentration 50 μM, read-out: activity (estimated)
Protocol: as §1, §2, §3, §4

SKMEL5 = experiment: SRB cell growth assay, 72 h; assay type: cell-based; settings: Homo sapiens, SK-MEL-5, most sensitive cell lines
Protocol: as §1, §2, §3, §4

TE671 = experiment: SRB cell growth assay, 72 h; assay type: cell-based; settings: Homo sapiens, TE-671, most sensitive cell lines
Protocol: as §1, §2, §3, §4

SAOS2 = experiment: SRB cell growth assay, 72 h; assay type: cell-based; settings: Homo sapiens, SAOS-2, highest tested concentration 50 μM, read-out: activity (estimated)
Protocol: as §1, §2, §3, §4

PC3 = experiment: SRB cell growth assay, 72 h; assay type: cell-based; settings: Homo sapiens, PC-3, highest tested concentration 50 μM, read-out: activity (estimated)
Protocol: as §1, §2, §3, §4

EFO21 = experiment: SRB cell growth assay, 72 h; assay type: cell-based; settings: Homo sapiens, EFO-21, highest tested concentration 50 μM, read-out: activity (estimated)
Protocol: as §1, §2, §3, §4

SKOV3 = experiment: SRB cell growth assay, 72 h; assay type: cell-based; settings: Homo sapiens, SK-OV-3, highest tested concentration 50 μM, read-out: activity (estimated)
Protocol: as §1, §2, §3, §4

NCIH292 = experiment: SRB cell growth assay, 72 h; assay type: cell-based; settings: Homo sapiens, NCI-H292, most sensitive cell lines
Protocol: as §1, §2, §3, §4

COLO205 = experiment: SRB cell growth assay, 72 h; assay type: cell-based; settings: Homo sapiens, COLO 205, most sensitive cell lines
Protocol: as §1, §2, §3, §4

SF295 = experiment: SRB cell growth assay, 72 h; assay type: cell-based; settings: Homo sapiens, SF-295, highest tested concentration 50 μM, read-out: activity (estimated)
Protocol: as §1, §2, §3, §4

MHHES1 = experiment: SRB cell growth assay, 72 h; assay type: cell-based, human; settings: single agent, up to 50 μM
Protocol: as §1, §2, §3, §4

MDAMB436 = experiment: SRB cell growth assay, 72 h; assay type: cell-based, human; settings: single agent, up to 50 μM
Protocol: as §1, §2, §3, §4

217 kinases = settings: tested at 10 μM; cited from earlier work
[3] = chemical stability of dosing stock solution; assay type: physicochemical; settings: in 1N HCl and water for injection, pH 3; in the dark at 4° C.
Protocol: Compound (2a) formulation was prepared in water for injection. The stock solution was chemically stable 7 days in the dark at 4° C. […] The pH of the final solution was 3. […]

IGROV1 = experiment: SRB cell growth assay, 72 h; assay type: cell-based; settings: Homo sapiens, IGROV-1, most sensitive, z-score <−1.5
Protocol: as §1, §2, §3, §4

A204 = experiment: SRB cell growth assay, 72 h; assay type: cell-based; settings: Homo sapiens, most sensitive, z-score <−1.5
Protocol: as §1, §2, §3, §4

SW620 = experiment: SRB cell growth assay, 72 h; assay type: cell-based; settings: Homo sapiens, SW-620, non-sensitive, z score >1.5
Protocol: as §1, §2, §3, §4

IMR90 = experiment: SRB cell growth assay, 72 h; assay type: cell-based; settings: Homo sapiens, IMR-90, most sensitive, z-score <−1.5
Protocol: as §1, §2, §3, §4

CAKI1 = experiment: SRB cell growth assay, 72 h; assay type: cell-based; settings: Homo sapiens, CAKI-1, most sensitive, z-score <−1.5
Protocol: as §1, §2, §3, §4

## O=C(NC[C@H](O)CO)c1ccncc1Nc1ccc(I)cc1F [Compound (1), N—((S)-2,3-dihydroxypropyl)-3-(2-fluoro-4-iodo-phenylamino)isonicotinamide]
90 non-kinase targets
  activity against 90 non-kinase targets: no activity
[1]
  decrease of the Evans-Blue/Dextran-Fitc ratio compared to control: −9%
[2]
  clearance: 0.9 to 2.6 L/h/kg
  half-life: 2.2 to 4.7 h
  oral bioavailability: 52-57%
HT29
  IC50: 4.8 to 8 nM
A375
  IC50: 4.8 to 8 nM
SKNAS
  IC50: 4.8 to 8 nM
CLS439
  IC50: > 50000 nM
SKMEL5
  IC50: 4.8 to 8 nM
TE671
  IC50: 4.8 to 8 nM
SAOS2
  IC50: > 50000 nM
PC3
  IC50: > 50000 nM
EFO21
  IC50: > 50000 nM
SKOV3
  IC50: > 50000 nM
NCIH292
  IC50: 4.8 to 8 nM
COLO205
  IC50: 4.8 to 8 nM
SF295
  IC50: > 50000 nM
MHHES1
  activity (cell growth inhibition): minimal activity
MDAMB436
  activity (cell growth inhibition): minimal activity
217 kinases
  activity against 217 kinases: no activity

## CCn1c(=O)c(-c2ccn[nH]2)cc2c(C)nc(N)nc21 [Compound (2b), 2-amino-8-ethyl-4-methyl-6-(1H-pyrazol-5-yl)pyrido[2,3-d]pyrimidin-7(8H)-one]
[3]
  stock solution chemically stable: 7 days
IGROV1
  GI50: < 500 nM
A204
  GI50: < 500 nM
SW620
  GI50: > 4000 nM
IMR90
  GI50: < 500 nM
CAKI1
  GI50: < 500 nM
